According to patent publication US20230303503A1, “CELL ACTIVATABLE IRON CHELATORS” (BOARD OF REGENTS, THE UNIVERSITY OF TEXAS SYSTEM, priority 2020, published 2023):
Values joined by “and” are separate entries in the source; they are usually repeats but may differ in a detail not shown here. Equal values may be shown once. Read-outs that look alike come from different tables or passages of the source.

Experiments:
[1] = system: A549 human lung cancer cell line; assay: MTT cell viability / antiproliferative assay in A549 cells; assay type: cell-based; settings: for IC50: A549, MTT, triplicate
Experimental: Cell culture. A549 cells (ATCC® CCL-185™) were maintained in growth medium consisting of RPMI 1640 Medium (Sigma-Aldrich, MO, USA) supplemented with 10% fetal bovine serum (Sigma-Aldrich, MO, USA) and 2% Penicillin/Streptomycin (Sigma-Aldrich, MO, USA). Cells were kept in a humidified atmosphere of 5% CO2 and 95% air at 37° C. and were split when they reached 90% confluency.
Cell viability assay. 1500 cells per well were plated on a 96-well plate (12 rows × 8 wells per row) in 100 µL growth medium and kept at 37° C. under 5% CO2. 24 h after seeding, cells were treated with another 100 µL growth medium containing different concentrations of the drug under evaluation. Cells in each row of the 96-well plate were treated with the same concentration of drug and the first two rows were kept as control and treated with growth medium alone. The highest drug concentration evaluated was 250 µM and lower concentrations were produced via serial dilution by a factor of 3. Treated cells were kept at 37° C. under 5% CO2 for 72 h. Then, 50 µL RPMI 1640 Medium without fetal bovine serum and penicillin/streptomycin containing 3 mg/mL 3-(4,5-dimethylthiazol-2-yl)-2,5-diphenyltetrazolium bromide (Sigma-Aldrich, MO, USA) was added to each well and cells were kept at 37° C. under 5% CO2 for another 4 h. Subsequently, the medium was removed, and the precipitated formazan dye taken up in DMSO (50 µL). The absorbance of the solutions was measured at 540 nm with an M5 microplate reader (Molecular Devices, USA) and 0.33 absorbance units were subtracted from all wells (this absorbance value corresponds to wells containing DMSO without dye - control). The absorbance of each row of wells were averaged and were directly proportional to the number of viable cells after drug treatment.
The antiproliferative activity of compounds 1-10 was evaluated in A549 lung cancer cells, a cell line with a well- established sensitivity to iron imbalance (Loza-Rosas et al., 2017; Ohara et al., 2013). For each compound, cellular proliferation profiles were produced via a standard MTT (3-(4,5-dimethylthiazol-2-yl)-2,5-diphenyltetrazolium bromide) assay for exposure times of 72 h and 24 h, respectively. From these proliferation profiles, averaged IC50 values and Hill slope (HS) parameters were determined via linear regression analysis.

[2] = Behaviour in aqueous media (solubility, aggregation, DLS); assay type: physicochemical; settings: water; neutral pH for ExJade
Experimental: Several new ExJade derivatives, designed to control solubility and modulate the intrinsic electronic features, namely ExPh, ExPh-OMe, ExH, ExBT, ExBT-OMe and ExPhos, were prepared. […] In marked contrast to what is seen in aqueous environments, solutions of ExPh and ExBT in most common organic solvents display no appreciable emission.
No significant fluorescence quenching was seen upon changing the solvents in which ExPh-OMe and ExBT-OMe were analyzed - DMSO, PhMe, THF, DCM, acetone, MeCN, MeOH and PBS. […] This putative ICT phenomenon has been observed in structurally similar N-phenylpyrrole analogues (Yoshihara et al., 2005; Yoshihara et al., 2003). Further support for the proposed aqueous induced aggregation mechanism invoked in the case of ExPh and […] came from studies of the parent system, ExJade.

[3] = system: Pseudomonas aeruginosa (ATCC 27853); assay: Bacterial growth inhibition; assay type: cell-based
Experimental: (§1) Similarly, the bacterial inhibitory effect of the present ExJade derivatives was then evaluated. Initial tests were focused on two Gram-negative, ESKAPE bacteria (Mulani et al., 2019), Pseudomonas aeruginosa (ATCC 27853) and Klebsiella pneumoniae (ATCC 13883). Arbekacin, an FDA-approved aminoglycoside-based antibiotic, was used as positive control.
(§2) This observation confirms the Fe(III) chelation dependent inhibitory activity. Due to the Fe(III) chelation dependent nature of the ExJade derivatives and to illustrate their potential “real life” utility, the inhibitory activity of ExBT and ExPhos against MRSA were evaluated in a blood containing medium consisting of agar and defibrillated amniotic blood (Filipowicz et al., 2003).

[4] = system: Klebsiella pneumoniae (ATCC 13883); assay: Bacterial growth inhibition; assay type: cell-based
Experimental: as §1

[5] = system: methicillin-resistant Staphylococcus aureus (MRSA, ATCC 43300); assay: Inhibition of drug-resistant bacteria (colonies, cell viability); assay type: cell-based; settings: agar and defibrillated amniotic blood
Experimental: Cell viability of (FIG. 4B) MRSA (ATCC 43300) and (FIG. 4C) VRE (ATCC 51299) before and after treatment with ExBT, ExJade, ExPhos, and arbekacin (15 µM).
More importantly, two clinically relevant gram-positive, drug-resistant bacteria, methicillin-resistant Staphylococcus aureus (MRSA, ATCC 43300) and vancomycin-resistant Enterococcus faecalis (VRE, ATCC 51299) with high ALP activity were then used to evaluate further the therapeutic potential of these ExJade derivatives. Again, arbekacin was used as a positive control. […] The observed inhibition of VRE is of particular significance since there are few clinically available treatments for this multidrug-resistant bacterium.
as §2

P. aeruginosa biofilms = assay: Live/dead biofilm viability assay on glass slides; assay type: cell-based, Pseudomonas aeruginosa; settings: CFP-SUL 16 µg/mL alone or combined with chelator 64 µg/mL
Experimental: (§3) FIGS. 11A & 11B show biofilm experiments. (FIG. 11A) Evaluation of CFP-SUL (cefoperazone-sulbactam; 16 µg/mL), CFP-SUL@ExBT (16 µg/mL@64 µg/mL), CFP-SUL@deferasirox (16 µg/mL@64 µg/mL), and CFP-SUL@ExPhos (16 µg/mL@64 µg/mL) for the treatment of P. aeruginosa and MRSA biofilms. Processed 3D images of P. aeruginosa and MRSA biofilms on glass slides using the live/dead biofilm viability assay. Distributions of PI-stained (red, dead bacteria) and Syto9-stained (green, live bacteria) (FIG. 11B) P. aeruginosa and MRSA biovolumes and CFU counts (purple dots) for the above groups. Biovolume data are mean values of three independent replicates.
(§4) Biofilm experiments were carried out on glass slides with both Pseudomonas aeruginosa and MRSA. The therapeutic performance of the broad-spectrum antibiotic cefoperazonesulbactam (CFP-SUL) (Sheu et al., 2020) was evaluated on its own and in combination with deferasirox, ExBT, and ExPhos using the live/dead biofilm caption viability assay (propidium iodide (PI): dead, red; Syto9: live, green).

MRSA biofilms = assay: Live/dead biofilm viability assay on glass slides; assay type: cell-based, Staphylococcus aureus; settings: CFP-SUL 16 µg/mL alone or combined with chelator 64 µg/mL
Experimental: as §3, §4

[6] = system: alkaline phosphatase (ALP); assay: Alkaline phosphatase response of the pro-chelator (fluorescence); assay type: biochemical; settings: 15 µM, ALP 0-64 U
Description: This ratiometric change in fluorescence emission was ascribed to the gradual and stepwise dephosphorylation of ExPhos, which was confirmed by LC-MS analysis. ExPhos solutions exposed to ALP (64 U ALP) were subsequently treated with increasing concentrations of Fe(III) (as the FeCl3 salt). […] Based on these findings, we considered it likely that ExPhos could serve as an ALP-responsive Fe(III) pro-chelator.
Recently, protected versions of known metal chelators (“prochelators”) have been explored in an effort to avoid premature metal chelation (Wang et al., 2016). The bis-phosphate ester ExPhos was thus prepared as a phosphatase-responsive fluorescent pro-chelator that would permit detection of a disease-based biomarker (i.e., alkaline phosphatase, ALP) (Zhang et al., 2020; McCullough and Barrios, 2020; Haarhaus et al., 2017; Gwynne et al., 2019). […] Timedependent changes in fluorescence emission intensity were also seen. The limit of detection (LoD) was calculated to be 0.016 75 U (measurements performed after 5 min of incubation). The ratiometric change in the fluorescence emission was ascribed to the gradual and stepwise (bis-phosphate ester to monophosphate ester to bisphenol) dephosphorylation of ExPhos (as confirmed by LCMS analyses). This sequential conversion leads to a rapid decrease in the blue emission and a slow increase in the green emission. […]

[7] = 24 h incubation, read-out: IC50 (24 h)
[8] = 72 h incubation, read-out: IC50 (72 h)

## O=C(O)c1ccc(-n2nc(-c3ccccc3O)nc2-c2ccccc2O)cc1 [Compound 1, deferasirox, reference compound]
[1]; A549, 50 µM FeCl3, 72 h of exposure
  cytotoxicity when cells were supplemented with FeCl3: no longer produced any observable cytotoxicity
[1]; Homo sapiens, 24 h incubation, read-out: IC50 (24 h)
  IC50: > 50 µM
[1]; Homo sapiens, 72 h incubation, read-out: IC50 (72 h)
  IC50: 8.5 µM
[2]
  solubility in aqueous media: good solubility

## COC(=O)c1ccc(-n2nc(-c3ccccc3O)nc2-c2ccccc2O)cc1 [Compound 2]
[1]; [7]
  IC50: 21 ± 3 µM
[1]; [8]
  IC50: 1.6 µM and 2.5 µM

## O=C(c1ccc(-n2nc(-c3ccccc3O)nc2-c2ccccc2O)cc1)N1CCOCC1 [Compound 4]
[1]; [7]
  IC50: > 50 µM
[1]; [8]
  IC50: 2.6 µM and 3.6 µM

## Oc1ccccc1-c1nc(-c2ccccc2O)n(-c2ccc(-c3nc4ccccc4s3)cc2)n1 [ExBT]
[3]
  inhibition of bacterial growth: capable of inhibiting the growth
[4]
  inhibition of bacterial growth: capable of inhibiting the growth
[5]
  inhibitory activity in blood containing medium: remaining strong
P. aeruginosa biofilms
  antibiofilm effect: enhanced
MRSA biofilms
  antibiofilm effect: enhanced
[2]
  solubility in aqueous media: insoluble aggregates

## Oc1ccccc1-c1nc(-c2ccccc2O)n(-c2ccccc2)n1 [ExPh]
[3]
  inhibition of bacterial growth: capable of inhibiting the growth
[4]
  inhibition of bacterial growth: capable of inhibiting the growth
[2]
  solubility in aqueous media: insoluble aggregates

## O=P(O)(O)Oc1ccccc1-c1nc(-c2ccccc2OP(=O)(O)O)n(-c2ccc(-c3nc4ccccc4s3)cc2)n1 [ExPhos]
[1]; pro-chelator, in words
  cytotoxicity towards A549 cells: no significant cytotoxicity
[3]
  inhibition of bacterial growth: capable of inhibiting the growth
[4]
  inhibition of bacterial growth: capable of inhibiting the growth
[5]
  inhibitory activity in blood containing medium: remaining strong
P. aeruginosa biofilms
  antibiofilm effect: enhanced
MRSA biofilms
  antibiofilm effect: enhanced
[6]
  change in fluorescence emission in the presence of ALP: dose dependent change

## O=C1[O][Pt]2([NH][C@@H]3CCCC[C@H]3[NH]2)[O]C1=O [Ox-Pt, oxaliplatin, reference compound]
[1]; [7]
  IC50: > 50 µM
[1]; [8]
  IC50: 0.5 ± 0.1 µM
